Measured values as given in ChEMBL document CHEMBL1201862, “PubChem BioAssay data set” (2004).
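How tested: cells in 96-well plates exposed to compound for 48 hours at five concentrations. Abbreviation: GI50, concentration required for 50% inhibition of growth.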 The source made the active and inactive calls. Rule as the data show it: active = GI50 up to about 1.1 µM and inactive = higher.

Key:
Experiment in all cases: DTP human tumour cell line panel, 48 h
HCT-116 = tested on: HCT-116
OVCAR-4 = tested on: OVCAR-4
K562 = tested on: K562
CCRF-CEM = tested on: CCRF-CEM
SNB-75 = tested on: SNB-75
SK-MEL-28 = tested on: SK-MEL-28
SNB-19 = tested on: SNB-19
OVCAR-8 = tested on: OVCAR-8
ACHN = tested on: ACHN
IGROV-1 = tested on: IGROV-1
HT-29 = tested on: HT-29
COLO 205 = tested on: COLO 205
A549 = tested on: A549
TK-10 = tested on: TK-10
MDA-MB-231 = tested on: MDA-MB-231
PC-3 = tested on: PC-3
MDA-N = tested on: MDA-N
SR = tested on: SR

Measured: GI50

CC(C)N(C(=O)C12C3C4C1C1C2C3C41C(=O)O)C(C)C (centres undefined)
inactive: HCT-116 > 100 µM | OVCAR-4 > 100 µM | K562 > 100 µM | CCRF-CEM > 100 µM | SNB-75 > 100 µM | SK-MEL-28 > 100 µM | SNB-19 > 100 µM | OVCAR-8 > 100 µM | ACHN > 100 µM | IGROV-1 > 100 µM | HT-29 > 100 µM | COLO 205 > 100 µM | A549 > 100 µM | TK-10 > 100 µM

N#CCc1ccc(/C(C#N)=C2/OC(=N)C(c3ccc(CC#N)cc3)C2=O)cc1 (centres undefined)
inactive: HCT-116 > 100 µM | OVCAR-4 > 100 µM | K562 > 100 µM | CCRF-CEM > 100 µM | SNB-75 > 100 µM | SK-MEL-28 > 100 µM | SNB-19 > 100 µM | OVCAR-8 > 100 µM | ACHN > 100 µM | IGROV-1 > 100 µM | HT-29 > 100 µM | COLO 205 > 100 µM | A549 > 100 µM | TK-10 > 100 µM

CC(=O)N(CN1C(=O)CCC1C(=O)O)c1cccc(O)c1 (centres undefined)
inactive: HCT-116 > 100 µM | OVCAR-4 > 100 µM | K562 > 100 µM | CCRF-CEM > 100 µM | SNB-75 > 100 µM | SK-MEL-28 > 100 µM | SNB-19 > 100 µM | MDA-MB-231 > 100 µM | PC-3 > 100 µM | OVCAR-8 > 100 µM | ACHN > 100 µM | IGROV-1 > 100 µM | HT-29 > 100 µM | MDA-N > 100 µM | COLO 205 > 100 µM | A549 > 100 µM | TK-10 > 100 µM

CC(=O)OC/C=C/Cn1ncc(=O)[nH]c1=O
inactive: K562 > 100 µM | CCRF-CEM > 10 µM | SNB-75 > 100 µM | SK-MEL-28 > 100 µM | SNB-19 > 100 µM | MDA-MB-231 > 100 µM | PC-3 > 100 µM | OVCAR-8 > 100 µM | ACHN > 100 µM | IGROV-1 > 100 µM | HT-29 > 100 µM | MDA-N > 100 µM | COLO 205 > 100 µM | A549 > 100 µM

C[N+](C)(C)CC(=O)N/N=C/c1oc(-c2cccc([N+](=O)[O-])c2)c(-c2cccc([N+](=O)[O-])c2)c1[N+](=O)[O-]
inactive: HCT-116 32.7 µM | OVCAR-4 > 100 µM | K562 > 10 µM | CCRF-CEM 35.2 µM | SK-MEL-28 44.3 µM | SNB-19 85.9 µM | OVCAR-8 70.8 µM | ACHN > 100 µM | IGROV-1 95.5 µM | HT-29 > 100 µM | SR 40.1 µM | COLO 205 > 100 µM | A549 > 100 µM | TK-10 > 100 µM

Cc1nnc(Nc2ccccc2)o1
inactive: HCT-116 > 100 µM | OVCAR-4 > 100 µM | K562 > 100 µM | CCRF-CEM > 100 µM | SNB-75 > 100 µM | SK-MEL-28 > 100 µM | SNB-19 > 100 µM | PC-3 > 100 µM | OVCAR-8 > 100 µM | ACHN > 100 µM | HT-29 > 100 µM | MDA-N > 100 µM | SR > 100 µM | COLO 205 > 100 µM | A549 > 100 µM | TK-10 > 100 µM

CCOC(=O)Nc1cc2nnc(-c3ccccc3)nc2c(N)n1
inactive: HCT-116 10.9 µM | OVCAR-4 14.9 µM | K562 5.14 µM | CCRF-CEM 32.1 µM | SNB-75 14.9 µM | SK-MEL-28 16.2 µM | SNB-19 32.1 µM | OVCAR-8 23.6 µM | ACHN 5.7 µM | IGROV-1 13.9 µM | HT-29 6.07 µM | SR 23.9 µM | COLO 205 2.73 µM | A549 4.81 µM | TK-10 37.5 µM
